Earlier results, collected in US20040043030A1, “Polymeric delivery systems” (Immunomedics, Inc., priority 2001, published 2004).

What was measured:
tumor cells = settings: relative to doxorubicin
[1] = molecular target: T1, human beta-D-glucuronidase (Homo sapiens, UniProt P08236); settings: Arcamone, Cancer Res., 45:5995, 1985
T1 sequence (P08236 23-651): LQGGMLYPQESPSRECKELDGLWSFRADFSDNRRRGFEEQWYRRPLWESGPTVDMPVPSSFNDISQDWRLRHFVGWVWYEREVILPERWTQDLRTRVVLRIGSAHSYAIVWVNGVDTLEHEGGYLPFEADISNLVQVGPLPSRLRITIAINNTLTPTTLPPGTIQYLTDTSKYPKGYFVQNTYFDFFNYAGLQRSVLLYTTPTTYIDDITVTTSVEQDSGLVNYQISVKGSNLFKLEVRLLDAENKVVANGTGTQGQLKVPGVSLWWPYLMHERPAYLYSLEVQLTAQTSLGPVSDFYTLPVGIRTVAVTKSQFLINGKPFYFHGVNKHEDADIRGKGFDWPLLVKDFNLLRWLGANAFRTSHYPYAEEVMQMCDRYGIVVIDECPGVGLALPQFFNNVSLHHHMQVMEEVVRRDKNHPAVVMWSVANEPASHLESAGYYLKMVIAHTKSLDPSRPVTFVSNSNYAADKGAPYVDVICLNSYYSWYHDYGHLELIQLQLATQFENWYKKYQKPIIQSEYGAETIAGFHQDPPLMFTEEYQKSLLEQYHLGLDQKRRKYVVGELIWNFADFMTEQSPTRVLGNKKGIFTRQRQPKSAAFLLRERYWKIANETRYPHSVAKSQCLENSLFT

| Structure (SMILES) | more toxic to tumor cells than doxorubicin itself (tumor cells) | substrate for human beta-D-glucuronidase [1] |
| --- | --- | --- |
| COc1cccc2c1C(=O)c1c(O)c3c(c(O)c1C2=O)C[C@@](O)(C(=O)CO)C[C@@H]3O[C@H]1C[C@H](N2C=CCC2)[C@H](O)[C@H](C)O1 [Example 2-PDOX, 2-pyrrolinodoxorubicin] | 100-1000 |  |
| COc1cccc2c1C(=O)c1c(O)c3c(c(O)c1C2=O)C[C@@](O)(C(=O)CO)C[C@@H]3O[C@H]1C[C@H](N)[C@@H](O)[C@H](C)O1 [epirubicin] |  | substrate |
